In PubChem BioAssay (NCI) one finds TGI and GI50 data, which are given here for nine compounds.

“And” between values parts separate entries of the source, which are not always exact repeats. Identical values can stand only once.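 Test compounds were applied to cells in 96-well plates for 48 hours at 5 doses. GI50 = concentration required for 50% inhibition of growth. TGI: concentration producing complete growth inhibition.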

Holding throughout (assay): growth of human tumour cells (NCI), 48 h
Assay [1] concerns PC-3 prostate.
Assay [2] deals with NCI-H23 lung.
Assay [3] relates to 786-0 renal.
The subject of assay [4] is T-47D breast.
Assay [5] deals with MALME-3M melanoma.
Assay [6] has as its system U251 CNS.
The subject of assay [7] is M14 melanoma.
Assay [8] relates to SK-MEL-5 melanoma.
In assay [9] the test system is HS 578T breast.
Assay [10] has as its system SK-MEL-28 melanoma.
Assay [11] deals with OVCAR-4 ovarian.
Assay [12] deals with SK-MEL-2 melanoma.

Regarding `NCCCCCNOCCCN`, the TGI in [1], in assay [2], in [3], in assay [4], in assay [5] and in assay [6] was above 100 µM throughout. Further, the TGI in assay [7], in assay [8], in [9], in assay [10], in assay [11] and in [12] was above 100 µM throughout.

On to `CNc1ncnc2c1cnn2Cc1cn(CCCCO)nn1`, for which the TGI in [1], in assay [2], in [3], in [4], in assay [5] and in assay [6] was above 100 µM each time. Further, the TGI in assay [7], in assay [8], in assay [9], in [10], in [11] and in assay [12] was above 100 µM each time.

With `C=CC[C@H]1[C@H](O[Si](C)(C)C(C)(C)C)C=CC(=O)[C@@H]1CC(=O)OCC`, the TGI was 21.3 µM in assay [1]; 33.6 µM in assay [2]; 27.6 µM in [3]; 24.7 µM in [4]; 25.9 µM in assay [5]; 27.8 µM in assay [6]. In addition, the TGI in [7] turned out to be 25.3 µM; in [8], 22.9 µM; in assay [9], 43.4 µM; in [10], 34.6 µM; in [11], 25.2 µM; in assay [12], 28.1 µM.

On to `C(=N/NC1=NCCN1)/c1c2ccccc2c(/C=N\NC2=NCCN2)c2ccccc12`, for which the GI50 in assay [1] was 0.0776 µM; in [4], 0.174 µM; in [7], 0.25 µM; in assay [9], 0.0844 µM. Also, the TGI is 0.348 µM and 0.422 µM in assay [1]; 0.647 µM and 1.4 µM and 1.03 µM in assay [2]; 1.86 µM and 1.87 µM in [3]; 0.939 µM and 4.13 µM in [4]; 0.259 µM and 0.564 µM and 0.477 µM in [5]; 0.722 µM and 0.309 µM and 1.16 µM in assay [6]. Further, the TGI in [7] was 0.568 µM and 0.697 µM; in assay [8], 0.214 µM and 0.896 µM and 0.761 µM; in [9], 0.262 µM and 0.591 µM; in assay [10], 1.01 µM and 1.08 µM and 0.685 µM; in assay [11] it was 0.4 µM and 0.584 µM and 1.1 µM; in [12] it was 0.271 µM and 0.747 µM and 0.422 µM.

As for `O=c1c(Sc2ncccn2)c(Sc2ncccn2)cnn1CCl`, the TGI in assay [1] was 8.79 µM; in assay [2], 18.3 µM; in assay [3] it was 4.79 µM; in assay [4] it was 14.2 µM; in assay [5], 4.25 µM; in assay [6], 19.7 µM. Besides, the TGI in assay [7] was determined as 4.76 µM; in assay [8], 21.2 µM; in assay [9], 37 µM; in assay [10], 12.7 µM; in assay [11], 6.14 µM; in [12], 5.88 µM.

Take `NCCC1([N+](=O)[O-])CCNCC1`: the TGI in assay [1], in assay [2], in [3], in assay [4], in assay [5] and in assay [6] was above 100 µM throughout. The TGI in [7], in assay [8], in assay [9], in assay [10], in assay [11] and in assay [12] was above 100 µM throughout.

Take `CN(C)C(=O)Oc1ccc(C(=S)Nc2ccccc2)cc1Br`: the TGI was above 100 µM in assay [1]; 57.3 µM in [2]; above 100 µM in [3]; 80.9 µM in [4]; above 100 µM in [5]; above 100 µM in assay [6]. The TGI in assay [7] is 39.8 µM; in assay [8] it was 32.2 µM; in assay [9], above 100 µM; in [10], above 100 µM; in [11], above 100 µM; in assay [12], 71.5 µM.

With `CCOP(=O)(OCC)C(=C1C=C(C(C)(C)C)C(=O)C(C(C)(C)C)=C1)P(=O)(OCC)OCC`, the TGI in [1] is above 10 µM; in [2], above 10 µM; in [3], above 5.51 µM; in [4], 4.04 µM; in [5] it was 3.38 µM; in [6] it was above 10 µM. Moreover, the TGI in assay [7] is 4.11 µM; in [8] it was above 10 µM; in [9], above 10 µM; in [10] it was above 10 µM; in [11], 3.5 µM; in assay [12] it was above 10 µM.

Regarding `Oc1ccccc1-n1nc2ccc3nonc3c2n1`, the TGI in [1], in assay [2], in assay [3], in assay [4], in assay [5] and in assay [6] was above 100 µM throughout. Besides, the TGI in assay [7], in assay [8], in [9], in assay [10], in assay [11] and in [12] was above 100 µM in each case.
